ChEMBL document CHEMBL1933014, “Synthesis and antihyperglycemic evaluation of new 2,4-thiazolidinediones having biodynamic aryl sulfonylurea moieties” (2012)

Test system: Rattus norvegicus
Experiment: Antihyperglycemic activity in normal albino rat sucrose-loaded model assessed as inhibition of postprandial rise in blood glucose level at 100 mg/kg, po pretreated 30 mins before sucrose challenge measured for 2 hrs during oral glucose tolerance test
Format: functional
Design: scale not given: the % may be the effect or the level left

| Structure (SMILES) | Activity |
| --- | --- |
| Cc1ccc(S(=O)(=O)NC(=O)NCC2SC(=O)NC2=O)cc1 (centres undefined) | 11.5% |
| O=C(NCC1SC(=O)NC1=O)NS(=O)(=O)c1ccccc1 (centres undefined) | 15.8% |
| O=C(NCC1SC(=O)NC1=O)NS(=O)(=O)c1ccc(Cl)cc1 (centres undefined) | 17.2% |
| O=C(NCC1SC(=O)NC1=O)NS(=O)(=O)c1ccc(F)cc1 (centres undefined) | 10.7% |
| O=C(NCC1SC(=O)NC1=O)NS(=O)(=O)c1ccc(Cl)cc1Cl (centres undefined) | 14.3% |
| O=C(NCC1SC(=O)NC1=O)NS(=O)(=O)c1cc(Cl)ccc1Cl (centres undefined) | 16.5% |
| O=C(NCC1SC(=O)NC1=O)NS(=O)(=O)c1ccc(Br)cc1Br (centres undefined) | 8.66% |
| O=C(NCC1SC(=O)NC1=O)NS(=O)(=O)c1ccc(Br)cc1 (centres undefined) | 9.44% |
| CN(C)C(=N)NC(=N)N [METFORMIN] | 27% |
